# Test results taken from publication PMC10700596 (Nature Communications, 2023).
# Where “and” joins values, the source holds several entries; their conditions need not be identical. Identical values can stand only once. Like-named read-outs stand apart in the source and are kept apart here.
# Assays:
# EP4R [1] = molecular target: T1, EP4R (Homo sapiens, UniProt P35408); test: cell-based; conditions: read-out: cAMP Assay KB
# T1 construct: Tango fusion cassette (only 'tango' is printed); expressed in transfected cells; host or cells: HTLA cells (tTA-dependent luciferase reporter, β-arrestin2-TEV fusion)
# EP4R [2] = molecular target: T1, EP4R; test: PRESTO-Tango β-arrestin2 recruitment assay; assay type: cell-based
# [3] = molecular target: T2, TYK2(JH1domain-catalytic) (Homo sapiens, UniProt P29597); test: KINOMEscan; assay type: binding
# T2 construct: TYK2(JH1domain-catalytic); purchased Eurofins DiscoverX KINOMEscan (scanEDGE, 97 kinases)
# T2 sequence (P29597 888-1187 limits assumed): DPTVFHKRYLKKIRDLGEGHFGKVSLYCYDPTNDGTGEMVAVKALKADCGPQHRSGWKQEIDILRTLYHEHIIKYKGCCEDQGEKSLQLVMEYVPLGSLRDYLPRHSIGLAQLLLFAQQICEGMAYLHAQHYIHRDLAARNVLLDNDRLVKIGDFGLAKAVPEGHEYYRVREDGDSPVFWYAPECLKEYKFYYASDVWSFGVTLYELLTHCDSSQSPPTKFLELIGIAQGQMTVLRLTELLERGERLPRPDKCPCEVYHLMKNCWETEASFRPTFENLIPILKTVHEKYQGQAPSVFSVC
# CSNK1G2 = CSNK1G2 (Homo sapiens, UniProt P78368); test: biochemical; assay type: binding; conditions: 10000 nM; read-out: Percent Control
# GPR160 = GPR160 (Homo sapiens, UniProt Q9UJ42); assay type: cell-based
# Procedure: (§1) EP4R. e) EP4R functional cyclic AMP production assay. Dose-response curves were obtained for 74 (KB […]
# (§2) production assays for the prostaglandin D2 (PGD2) receptor or the Thromboxane A2 (TP) receptor, respectively. AZD1981 and Ramatroban were used as control PGD2 and TP receptor antagonists, respectively. U46619 served as a TP receptor agonist. H) GPCRome off-target screening of 74 at 10 µM. i) Potential off-targets that met the activity threshold (3-fold of increase of basal) in the GPCRome screen (GPR174, GPR160, or NMUR2) were investigated with full dose-response curves in PRESTO-Tango […]
# (§3) Data in a)-d), f)-g), i) represents mean ± SEM of three independent experiments. Data in e) represents two technical replicates. Data in h) represents mean ± SEM of four technical replicates. Source data are provided as a Source Data file.
# (§4) (1 picture or pasted object on this page, not shown here)
# GPR174 = GPR174 (Homo sapiens, UniProt Q9BXC1); assay type: cell-based
# Procedure: as §1, §2, §3, §4
# NMUR2 = NMUR2 (Homo sapiens, UniProt Q9GZQ4); assay type: cell-based
# Procedure: as §1, §2, §3, §4
# SNARK = SNARK (Homo sapiens, UniProt Q9H093); test: biochemical; assay type: binding; conditions: 10000 nM; read-out: Percent Control
# in vivo = assay type: in vivo, mice; conditions: mice
# [4] = male, CD-1, mouse, CSF, ip, 10 mg/kg, IP 10 mg/kg, CSF, mean, read-out: CSF concentrations of cmpd 7827_0016 in mice following IP (10 mg/kg) administration, C
# [5] = male, CD-1, mouse, brain, ip, 10 mg/kg, IP 10 mg/kg, brain, individual animals, read-out: Brain concentration, Final
# [6] = male, CD-1, mouse, brain, ip, 10 mg/kg, IP 10 mg/kg, brain, mean, read-out: Brain concentrations of cmpd 7827_0016 in mice following IP (10 mg/kg) administration, C
# T1 sequence (P35408 whole entry, the tested form may be a part): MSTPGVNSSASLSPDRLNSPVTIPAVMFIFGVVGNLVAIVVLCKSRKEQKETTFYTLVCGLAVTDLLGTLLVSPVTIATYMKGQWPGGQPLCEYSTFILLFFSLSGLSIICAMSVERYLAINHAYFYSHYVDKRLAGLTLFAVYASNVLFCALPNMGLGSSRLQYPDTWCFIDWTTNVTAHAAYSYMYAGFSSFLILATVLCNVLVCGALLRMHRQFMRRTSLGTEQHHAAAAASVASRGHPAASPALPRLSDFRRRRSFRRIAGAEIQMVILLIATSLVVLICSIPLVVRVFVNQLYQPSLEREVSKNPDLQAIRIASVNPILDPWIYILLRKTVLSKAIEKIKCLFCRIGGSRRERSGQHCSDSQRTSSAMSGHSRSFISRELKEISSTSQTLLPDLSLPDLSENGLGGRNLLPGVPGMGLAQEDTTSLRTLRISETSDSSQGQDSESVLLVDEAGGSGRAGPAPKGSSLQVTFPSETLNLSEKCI
# Sequence of GPR174 (Q9BXC1 whole entry): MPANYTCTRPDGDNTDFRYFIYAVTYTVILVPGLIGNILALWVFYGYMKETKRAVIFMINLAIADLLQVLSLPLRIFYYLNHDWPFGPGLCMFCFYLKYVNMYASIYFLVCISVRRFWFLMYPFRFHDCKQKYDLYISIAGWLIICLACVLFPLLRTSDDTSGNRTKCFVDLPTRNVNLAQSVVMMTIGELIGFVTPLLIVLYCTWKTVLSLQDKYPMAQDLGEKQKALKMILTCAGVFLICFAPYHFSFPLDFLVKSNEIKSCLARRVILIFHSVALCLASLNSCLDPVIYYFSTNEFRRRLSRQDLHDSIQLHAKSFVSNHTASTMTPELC
# Sequence of SNARK (Q9H093 whole entry): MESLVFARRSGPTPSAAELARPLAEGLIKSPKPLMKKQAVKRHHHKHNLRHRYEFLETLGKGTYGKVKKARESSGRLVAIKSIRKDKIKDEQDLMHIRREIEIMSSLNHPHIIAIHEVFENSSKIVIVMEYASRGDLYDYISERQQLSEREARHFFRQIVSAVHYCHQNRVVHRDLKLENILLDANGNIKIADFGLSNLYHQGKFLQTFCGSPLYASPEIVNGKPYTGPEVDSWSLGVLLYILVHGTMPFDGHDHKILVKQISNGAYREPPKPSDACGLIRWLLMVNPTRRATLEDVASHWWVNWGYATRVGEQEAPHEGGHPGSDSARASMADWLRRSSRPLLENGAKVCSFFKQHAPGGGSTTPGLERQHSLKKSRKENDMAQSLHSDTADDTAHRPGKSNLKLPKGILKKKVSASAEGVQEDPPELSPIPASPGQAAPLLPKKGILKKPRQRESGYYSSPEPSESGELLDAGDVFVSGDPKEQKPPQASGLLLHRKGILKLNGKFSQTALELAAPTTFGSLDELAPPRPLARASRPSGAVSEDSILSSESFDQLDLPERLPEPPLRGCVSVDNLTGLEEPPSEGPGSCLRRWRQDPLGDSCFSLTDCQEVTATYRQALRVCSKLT
# Sequence of NMUR2 (Q9GZQ4 whole entry): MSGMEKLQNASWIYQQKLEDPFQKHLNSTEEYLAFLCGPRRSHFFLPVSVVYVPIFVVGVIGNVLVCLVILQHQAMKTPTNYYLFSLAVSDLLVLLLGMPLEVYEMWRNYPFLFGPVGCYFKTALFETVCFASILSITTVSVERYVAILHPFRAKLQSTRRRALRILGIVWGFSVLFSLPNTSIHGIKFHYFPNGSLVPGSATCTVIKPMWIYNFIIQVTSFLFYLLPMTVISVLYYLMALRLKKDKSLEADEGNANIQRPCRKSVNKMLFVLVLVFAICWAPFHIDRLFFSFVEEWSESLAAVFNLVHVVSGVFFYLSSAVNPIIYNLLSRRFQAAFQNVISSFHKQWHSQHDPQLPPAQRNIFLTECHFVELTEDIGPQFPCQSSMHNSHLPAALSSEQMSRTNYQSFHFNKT
# Sequence of GPR160 (Q9UJ42 whole entry): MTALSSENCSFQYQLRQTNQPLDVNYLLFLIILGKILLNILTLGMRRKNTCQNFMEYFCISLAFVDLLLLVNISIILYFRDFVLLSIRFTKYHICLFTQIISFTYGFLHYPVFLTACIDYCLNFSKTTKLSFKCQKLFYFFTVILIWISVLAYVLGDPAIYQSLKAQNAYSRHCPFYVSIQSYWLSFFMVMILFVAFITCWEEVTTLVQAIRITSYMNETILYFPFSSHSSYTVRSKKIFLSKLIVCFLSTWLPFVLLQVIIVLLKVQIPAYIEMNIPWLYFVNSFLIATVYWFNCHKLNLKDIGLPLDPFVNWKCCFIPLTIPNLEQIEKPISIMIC
# Sequence of CSNK1G2 (P78368 whole entry): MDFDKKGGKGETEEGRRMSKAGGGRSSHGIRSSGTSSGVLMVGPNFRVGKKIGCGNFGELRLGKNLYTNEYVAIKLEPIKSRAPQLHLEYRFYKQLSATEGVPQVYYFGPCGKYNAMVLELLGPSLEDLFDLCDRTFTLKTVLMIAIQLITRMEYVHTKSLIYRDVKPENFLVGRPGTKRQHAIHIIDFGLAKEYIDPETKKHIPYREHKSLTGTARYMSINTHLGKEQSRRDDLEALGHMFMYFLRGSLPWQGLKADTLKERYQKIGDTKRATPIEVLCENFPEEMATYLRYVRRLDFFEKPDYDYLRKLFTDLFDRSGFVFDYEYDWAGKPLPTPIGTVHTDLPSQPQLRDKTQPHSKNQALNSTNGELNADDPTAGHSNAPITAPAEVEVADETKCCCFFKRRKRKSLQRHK
structure (smiles),measurement,setting,value
"O=C(O)C1CCC2(CC1)CC(Nc1ncnc3[nH]c4c(F)cccc4c13)C2 (stereo not drawn) [Compound 74, OC(=O)C1CCC2(CC(C2)NC=3N=CN=C4NC=5C(F)=CC=CC5C34)CC1]",Kb,EP4R [1],16 nM
same,IC50,EP4R [2]; PRESTO-Tango IC50 (nM),302 nM
same,Ki,"EP4R [2]; calculated using the Cheng Prusoff equation, read-out: PRESTO-Tango Ki*",60.4 nM
same,remaining binding at 10 µM,"[3]; 10000 nM, read-out: Percent Control",0%
same,Signal (qPCR),"[3]; TYK2, [Compound] 0.0001 nM",4e-6 and 3.91e-6
same,Signal (qPCR),"[3]; TYK2, [Compound] 0.01 nM",3.79e-6 and 3.64e-6
same,Signal (qPCR),"[3]; TYK2, [Compound] 0.169 nM",3.6e-6 and 3.79e-6
same,Signal (qPCR),"[3]; TYK2, [Compound] 0.508 nM",4.38e-6 and 4.26e-6
same,Signal (qPCR),"[3]; TYK2, [Compound] 1.52 nM",4.63e-6 and 4.29e-6
same,Signal (qPCR),"[3]; TYK2, [Compound] 13.7 nM",3.86e-6 and 3.5e-6
same,Signal (qPCR),"[3]; TYK2, [Compound] 41.2 nM",4.1e-6 and 3.94e-6
same,Signal (qPCR),"[3]; TYK2, [Compound] 123 nM",2.97e-6 and 3.29e-6
same,Signal (qPCR),"[3]; TYK2, [Compound] 370 nM",2.73e-6 and 2.71e-6
same,Signal (qPCR),"[3]; TYK2, [Compound] 3330 nM",6.46e-7 and 5.93e-7
same,Signal (qPCR),"[3]; TYK2, [Compound] 10000 nM",1.74e-7 and 2.08e-7
same,remaining activity at 10 µM,CSNK1G2,54%
same,activity in full dose-response,GPR160,no activity
same,activity in full dose-response,GPR174,no activity
same,activity in full dose-response,NMUR2,no activity
same,remaining activity at 10 µM,SNARK,54%
same,brain and cerebral spinal fluid exposure,in vivo; 10 mg/kg i.p.,only marginal brain and cerebral spinal fluid exposure
same,concentration at 5 min,in vivo; [4],15.7 ng/mL
same,concentration at 15 min,in vivo; [4],70.5 ng/mL
same,concentration at 30 min,in vivo; [4],80.6 ng/mL
same,concentration at 60 min,in vivo; [4],158 ng/mL
same,concentration at 120 min,in vivo; [4],119 ng/mL
same,concentration at 240 min,in vivo; [4],26 ng/mL
same,concentration at 360 min,"in vivo; male, CD-1, mouse, CSF, ip, 10 mg/kg, IP 10 mg/kg, CSF, individual animals, read-out: CSF concentration, Final",98.6 ng/mL
same,concentration at 360 min,in vivo; [4],80.9 ng/mL
same,concentration at 480 min,in vivo; [4],7.31 ng/mL
same,concentration at 1440 min,"in vivo; male, CD-1, mouse, CSF, ip, 10 mg/kg, IP 10 mg/kg, CSF, 1440 min, mean, read-out: CSF concentrations of cmpd 7827_0016 in mice following IP (10 mg/kg) administration, C",10.8 ng/mL
same,concentration at 5 min,in vivo; [5],58.9 ng/g
same,concentration at 5 min,in vivo; [6],61.1 ng/g
same,concentration at 15 min,in vivo; [5],152 ng/g
same,concentration at 15 min,in vivo; [6],135 ng/g
same,concentration at 30 min,in vivo; [5],150 ng/g
same,concentration at 30 min,in vivo; [6],203 ng/g
same,concentration at 60 min,in vivo; [5],182 ng/g
same,concentration at 60 min,in vivo; [6],160 ng/g
same,concentration at 120 min,in vivo; [6],82.1 ng/g
same,concentration at 240 min,in vivo; [5],21.6 ng/g
same,concentration at 240 min,in vivo; [6],24.7 ng/g
same,concentration at 360 min,in vivo; [5],20.8 ng/g
same,concentration at 360 min,in vivo; [6],24.3 ng/g
same,concentration at 480 min,in vivo; [6],26.7 ng/g
